Measurements reported in patent publication EP0063525A1, “Dibenzazepine tetracyclic derivatives, process for their preparation and pharmaceutical compositions containing them” (CENTRE NATIONAL DE LA RECHERCHE SCIENTIFIQUE (CNRS), priority 1981, dated 1982).
Values after ≈ are worked out from the molar mass of the structure shown. Like-named read-outs stand apart in the source and are kept apart here.

Experiments:
[1] = test system: souris femelles; assay: acute toxicity in the mouse, intraperitoneal; format: in vivo; conditions: voie intrapéritonéale, dead mice of the group
Text: (§1) Les produits ont été administrés par voie intrapéritonéale à des souris femelles dont le poids variait de 18 à 30 g.
(§2) Les animaux injectés ont été maintenus dans une salle thermostatée, nourris et abreuvés à volonté.
(§3) La mortalité a été relevée à 1 heure, 4 heures, 24 heures et 48 heures.

[2] = acute toxicity in the mouse, intraperitoneal; format: in vivo, Souris; conditions: mouse, in vivo, ip, voie intrapéritonéale; for LD50 at 48 h: souris femelles, read-out: DL 50; for mortality at 48 h: read-out: Mortalité %
Text: as §1, §2, §3

[3] = test system: Souris; assay: tetrabenazine hypothermia; format: in vivo
Method: (§4) Ce test permet de révéler également une activité antidépressive avec l'avantage d'une lecture plus rapide qu'avec la réserpine.
Les produits sont injectés 30 minutes avant l'administration de tétrabénazine.
Les températures sont relevées aux temps : 0, 30 minutes, 60 minutes, 90 minutes et 120 minutes.
(§5) Les souris sont réparties par lots de 5.
Les températures sont relevées avant l'injection de tétrabénazine, 30 minutes, 60 minutes, 90 minutes et 120 minutes après.
(§6) Le lot témoin comprend 20 souris.

[4] = test system: Souris; assay: antireserpine activity: reserpine hypothermia; format: in vivo; conditions: réserpine 5 mg/kg i.p. 17 h before
Outline: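 Mice in groups of 4 given reserpine 5 mg/kg i.p.; 17 hours later rectal temperature taken by thermocouple and test substance or solvent given i.p. Temperature measured hourly for 4 hours. Reported as mean temperature changes at 1, 2, 3 and 4 hours, their 4-hour sum, and percent rise versus solvent controls.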

[5] = test system: Souris; assay: tetrabenazine ptosis; format: in vivo; conditions: for Ptosis 30 minutes / Ptosis 60 minutes / Ptosis 90 minutes / Ptosis 120 minutes: score 0-4 per eye
Method: as §4, §5
Le ptosis est noté avant l'injection de tétrabénazine, 30 minutes, 60 minutes, 90 minutes et 120 minutes après.
On a adopté la notation suivante : • - 0 : pour un oeil ouvert, • - 1 : pour un oeil fermé au quart, • - 2 : pour un oeil fermé à moitié, • - 3 : pour un oeil fermé aux trois-quarts, • - 4 : pour un oeil fermé complètement.
as §6

[6] = test system: chiens anesthésiés; assay: cardiovascular toxicity in the anaesthetised dog, slow perfusion; format: in vivo, Chien
Method: L'étude du composé 2 a été effectuée sur 7 chiens anesthésiés à des doses allant de 4 à 20 mg/kg en perfusion lente.

[7] = test system: Souris; assay: analgesic activity, phenylbenzoquinone writhing technique; format: in vivo
Method: Ce test consiste à rechercher une éventuelle protection vis-à-vis des crampes ou contorsions abdominales provoquées chez la Souris par injection intrapéritonéale de phénylbenzoquinone.
Les souris sont réparties au hasard par lots de 4 dans des cristallisoirs.
Le compose 2 a été injecté par voie intrapéritonéale, 30 minutes avant l'injection de la phénylbenzoquinone.
Les crampes abdominales sont comptées pour chaque souris pendant 30 minutes à partir de la quinzième minute qui suit l'injection de l'agent algogène.

[8] = test system: rat; assay: medium-term toxicity in the rat, per os, 5 weeks; conditions: per os, 2, 10 et 50 mg/kg pendant 5 semaines
Method: Cette étude a eu pour but de rechercher les effets éventuels du composé 2 sur les différents paramètres biologiques hématologi -ques et histologiques du rat après traitement per os à raison de 2,10 et 50 mg/kg pendant 5 semaines.

[9] = test system: Iléon de cobaye; assay: spasmolytic action, antihistaminic effect; format: cell-based; conditions: histamine 0,5 à 3 x 10^-5 mg/ml, cinq préparations; read-out: DE 50 envers le spasme provoqué par l'histamine
Method: (§7) Les essais ont été effectués sur l'Iléon de cobaye maintenu en survie dans une solution de Tyrode oxygénée et thermostabilisée à 37° C suivant le méthode de MAGNUS.
(§8) L'action spasmolytique du composé 2 a été étudiée en opposition avec les propriétés spasmogènes de l'acétylcholine, du chlorure de baryum, de l'histamine et de la sérotonine.
Ces essais ont été pratiqués sur cinq préparations. L'histamine a été utilisée à la concentration de 0,5 à 3 x 10^-5 mg/ml.

[10] = test system: Iléon de cobaye; assay: spasmolytic action, anticholinergic effect (acetylcholine contraction); format: cell-based; conditions: acétylcholine 3 à 6 x 10^-5 mg/ml, six préparations; read-out: DE 50 (effet anticholinergique)
Method: as §7, §8
Ces essais ont été effectués sur six préparations. L'effet inhibiteur du composé 2 a été recherché à l'encontre des propriétés contracturantes de l'acétylcholine utilisée à la concentration de 3 à 6 x 10^-5 mg/ml pour une cuve de 30 ml.

[11] = test system: Iléon de cobaye; assay: spasmolytic action, anti barium chloride effect; format: cell-based; conditions: BaCl2 6 x 10^-2 mg/ml
Method: as §7, §8
Ces essais ont été effectués sur douze préparations. Six ont été utilisées pour la recherche d'inhibition de la contraction ba- rytique dite curative, les six autres pour les essais dits "préventif baryum".
La concentration de BaCl2 utilisée comme agent contracturant est de 6 x 10^-2 mg/ml.

[12] = product i.p. 50 mg/kg 30 min before tétrabénazine 32 mg/kg i.v.
[13] = 20 mg/kg/IP 30 min before phényl-benzoquinone 10 mg/kg/IP
[14] = 50 mg/kg/IP 30 min before phényl-benzoquinone 10 mg/kg/IP
[15] = product i.p. 5 mg/kg 30 min before tétrabénazine 32 mg/kg i.v.

With `CN(C)CCCN1c2ccccc2C2ON=C(c3ccccc3)C2c2ccccc21` (stereo not shown) [compound 3, (γ-diméthylaminopropyl)-8 phényl-3 trihydro-3a, 8,12b (dibenzo [b,f]isoxazolo [4,5-d])azépine] the “Mortalité en 1 heure” value ([1]; 100 mg/kg) was 0, the “Mortalité en 48 h.” value ([1]; 100 mg/kg) was 0 and the “Mortalité en 1 heure” value ([1]; 150 mg/kg) was 0. The “Mortalité en 48 h.” value ([1]; 150 mg/kg) was 0, the “Mortalité en 1 heure” value ([1]; 200 mg/kg) was 2 and the “Mortalité en 48 h.” value ([1]; 200 mg/kg) was 2. The “Mortalité en 1 heure” value ([1]; 250 mg/kg) was 5, the “Mortalité en 48 h.” value ([1]; 250 mg/kg) was 5 and the LD50 at 48 h [2] was 200 mg/kg. It also gave a mortality at 48 h ([2]; 100 mg/kg) of 0%, a mortality at 48 h ([2]; 150 mg/kg) of 0% and a mortality at 48 h ([2]; 200 mg/kg) of 40%. The mortality at 48 h ([2]; 250 mg/kg) was 100%, the inhibition in vivo at 50 mg/kg ([3]; ip, 2 h, hypothermie, product i.p. 50 mg/kg 30 min before tétrabénazine 32 mg/kg i.v., read-out: % de protection) was 40% and the “Température après tétrabénazine 30 minutes” value [3, 12] was -0,9. The “Température après tétrabénazine 60 minutes” value [3, 12] was -1,2, the “Température après tétrabénazine 90 minutes” value [3, 12] was -2,6 and the “Température après tétrabénazine 120 minutes” value [3, 12] was -0,4. For the same compound, the “Température après tétrabénazine Total” value [3, 12] was -5,1, the change in vivo at 50 mg/kg ([4]; ip, 4 h, product i.p. 50 mg/kg, read-out: % d'augmentation par rapport aux témoins) was 125% and the “variation de température T= 2h” value ([4]; product i.p. 50 mg/kg) was “+0,9”. The “variation de température T=3h” value ([4]; product i.p. 50 mg/kg) was “+0,9”, the “variation de température T=4h” value ([4]; product i.p. 50 mg/kg) was “+0,1” and the inhibition in vivo at 50 mg/kg ([5]; ip, 2 h, ptosis, product i.p. 50 mg/kg 30 min before tétrabénazine 32 mg/kg i.v., read-out: % de protection) was 32%. The “Ptosis Total” value [5, 12] was 20,4, the “Ptosis 30 minutes” value [5, 12] was 1,6 and the “Ptosis 60 minutes” value [5, 12] was 5,2. The “Ptosis 90 minutes” value [5, 12] was 6,8 and the “Ptosis 120 minutes” value [5, 12] was 6,8.

With `CN(C)CCCN1c2ccccc2CCc2ccccc21` [imipramine, reference compound] the “retour vers les valeurs de départ des paramètres enregistrés, dès l'arrêt de l'injection” value ([6]; chiens anesthésiés, perfusion lente) was “n'a pas été constatée”.

For `CN(C)CCN1c2ccccc2C2ON=C(c3ccccc3)C2c2ccccc21` (stereo not drawn) [Composé 2, (β-diméthylaminoéthyl)-8 phényl-3 trihydro-3a,8, 12b (dibenzo [b,f]isoxazolo [4,5-d])azépine], the “% de protection” value [7, 13] was 70%, the “Nombre de crampes en 30 minutes” value [7, 13] was 35 and the “% de protection” value [7, 14] was 100%. The “Nombre de crampes en 30 minutes” value [7, 14] was 0, the “action protectrice envers le syndrome douloureux à la phénylbenzoquinone” value ([7]; in vivo) was “action protectrice importante” and the “Mortalité en 1 heure” value ([1]; 10 mg/kg) was 0. For the same compound, the “Mortalité en 48 h.” value ([1]; 10 mg/kg) was 0, the “Mortalité en 1 heure” value ([1]; 50 mg/kg) was 0 and the “Mortalité en 48 h.” value ([1]; 50 mg/kg) was 0. The “Mortalité en 1 heure” value ([1]; 75 mg/kg) was 0, the “Mortalité en 48 h.” value ([1]; 75 mg/kg) was 0 and the “Mortalité en 1 heure” value ([1]; 100 mg/kg) was 3. For the same compound, the “Mortalité en 48 h.” value ([1]; 100 mg/kg) was 3, the “Mortalité en 1 heure” value ([1]; 200 mg/kg) was 4 and the “Mortalité en 48 h.” value ([1]; 200 mg/kg) was 5. It also gave an LD50 at 48 h [2] of 95 mg/kg, a mortality at 48 h ([2]; 10 mg/kg) of 0% and a mortality at 48 h ([2]; 50 mg/kg) of 0%. It also gave a mortality at 48 h ([2]; 75 mg/kg) of 0%, a mortality at 48 h ([2]; 100 mg/kg) of 60% and a mortality at 48 h ([2]; 200 mg/kg) of 100%. The inhibition in vivo at 5 mg/kg ([3]; ip, 2 h, hypothermie, product i.p. 5 mg/kg 30 min before tétrabénazine 32 mg/kg i.v., read-out: % de protection) was 3%, the “Température après tétrabénazine 30 minutes” value [3, 15] was -3,2 and the “Température après tétrabénazine 60 minutes” value [3, 15] was -2,6. For the same compound, the “Température après tétrabénazine 90 minutes” value [3, 15] was -1,3, the “Température après tétrabénazine 120 minutes” value [3, 15] was -1,3 and the “Température après tétrabénazine Total” value [3, 15] was -8,3. The change in vivo at 5 mg/kg ([4]; ip, 4 h, product i.p. 5 mg/kg, read-out: % d'augmentation par rapport aux témoins) was 155%, the “variation de température T= 2h” value ([4]; product i.p. 5 mg/kg) was “+1,6” and the “variation de température T=3h” value ([4]; product i.p. 5 mg/kg) was “+0,7”. For the same compound, the “variation de température T=4h” value ([4]; product i.p. 5 mg/kg) was “+1,4”, the “toxicité sur le système cardiovasculaire comparativement à l'imipramine” value ([6]; in vivo, 20 mg/kg) was “plus faible toxicité” and the “paramètres biologiques hématologiques et histologiques du rat” value [8] was “aucune modification”. The inhibition in vivo at 5 mg/kg ([5]; ip, 2 h, ptosis, product i.p. 5 mg/kg 30 min before tétrabénazine 32 mg/kg i.v., read-out: % de protection) was 5%, the “Ptosis Total” value [5, 15] was 28,6 and the “Ptosis 30 minutes” value [5, 15] was 4,8. The “Ptosis 60 minutes” value [5, 15] was 7,8, the “Ptosis 90 minutes” value [5, 15] was 8 and the “Ptosis 120 minutes” value [5, 15] was 8. For the same compound, the EC50 [9] was roughly 0.05 µg/mL (≈ 0.13 µM), the EC50 [10] was 0.5 µg/mL (≈ 1.3 µM) and the IC50 ([11]; curative, read-out: concentration for inhibition de 50% de l'effet spasmogène, essais curatifs) was 1 µg/mL (≈ 2.61 µM). It also gave an IC50 ([11]; Cavia porcellus, preventive, read-out: concentration for inhibition de 50% de l'effet spasmogène, essais préventifs) of 0.5 µg/mL (≈ 1.3 µM).
